Measurements from paper PMC12362587, “Untargeted Diversity-Oriented Synthesis for the Discovery of New Antitumor Agents: An Integrated Approach of Inverse Virtual Screening, Bioinformatics, and Omics for Target Deconvolution” (Journal of Medicinal Chemistry, 2025).

Key:
HEPG2 = test: MTT cell viability assay; format: cell-based; settings: Homo sapiens, 24 h, compounds 0.01–40 μM, read-out: In Vitro Cytotoxicity, EC50 ± SD, HEPG2
Text: (§1) Initially, we phenotypically screened the synthesized compounds over a panel of tumor cell lines composed of HEPG2, A375, SHSY5Y, MCF7, and A549 derived from liver tumor, melanoma, neuroblastoma, breast cancer, and lung adenocarcinoma, respectively. We also considered the HaCaT cell line, coming from keratinocytes, as a healthy control line. As reference, cytotoxic chemotherapeutic agent 5-fluorouracil (5-FU) has been used. The results obtained performing the MTT (3-(4,5-dimethylthiazolyl-2)-2,5-diphenyltetrazolium bromide) assay are summarized in Table .
The human hepatoma HEPG2 cell line was obtained from American Type Culture Collection (ATCC, Rockville, MD, USA). Cells were grown in Eagle’s Minimum Essential Medium (EMEM) supplemented with 10% (v/v) fetal bovine serum (FBS), 2 mM L-glutamine, 1% (v/v) nonessential amino acids, 100 U/mL penicillin, and 0.1 mg/mL streptomycin.
(§2) Cell viability was established by measuring mitochondrial metabolic activity with MTT. In brief, HEPG2 (1 × 10^4 cells/well), A375 (2 × 10^3 cells/well), HaCaT (3 × 10^3 cells/well), A549 (3 × 10^3 cells/well), SHSY5Y (2 × 10^4 cells/well), and MCF 7 (5 × 10^3 cells/well) were plated into 96-well plates for 24 h, then the compounds (0.01–40 μM) were added. After 24h, cells were replaced with a fresh medium containing 0.5 mg/mL MTT. Cells were incubated 1–3 h at 37 °C, then the medium was discarded, and formazan blue crystals in the cells were dissolved in 100 μL per well of a solution containing isopropanol/HCl 0.1 M. The absorbance was measured at 570 nm using a microplate reader (Multiskan Go, Thermo Scientific, Waltham, MA, USA). Cell viability was expressed as a percentage relative to the untreated cells cultured in medium with 0.1% DMSO and set to 100%, whereas 10% DMSO was used as positive control and set to 0% of viability. The EC50 values were calculated using GraphPad Prism 8.0 software by nonlinear regression of dose–response inhibition.

A375 = test: MTT cell viability assay; format: cell-based; settings: Homo sapiens, A-375, 24 h, compounds 0.01–40 μM, read-out: In Vitro Cytotoxicity, EC50 ± SD, A375
Text: as §1
(§3) The human neuroblastoma SHSY5Y, melanoma A375, human breast cancer MCF7, nonsmall lung cancer A549, and human epidermal keratinocyte HaCaT cell lines were obtained from ATCC and were grown in Dulbecco’s Modified Eagle Medium (DMEM) supplemented with 10% (v/v) FBS, 2 mM L-glutamine, 100 U/mL penicillin, and 0.1 mg/mL streptomycin.
as §2

A549 = test: MTT cell viability assay; format: cell-based; settings: Homo sapiens, 24 h, compounds 0.01–40 μM, read-out: In Vitro Cytotoxicity, EC50 ± SD, A549
Text: as §1, §3, §2

MCF7 = test: MTT cell viability assay; format: cell-based; settings: Homo sapiens, 24 h, compounds 0.01–40 μM, read-out: In Vitro Cytotoxicity, EC50 ± SD, MCF7
Text: as §1, §3, §2

SHSY5Y = test: MTT cell viability assay; format: cell-based; settings: Homo sapiens, SH-SY5Y, 24 h, compounds 0.01–40 μM, read-out: In Vitro Cytotoxicity, EC50 ± SD, SHSY5Y
Text: as §1, §3, §2

[1] = molecular target: T1, isocitrate dehydrogenase (IDH1 R132H) (Homo sapiens, UniProt O75874, R132H); test: IDH1 enzyme assay (R132H; BPS Bioscience); format: biochemical; settings: top concentration 30 μM
T1 construct: purchased BPS Bioscience
Method: The assay was performed in a volume of 100 μL in a 96-well black plate. The IDH1 enzyme assay (R132H; BPS Bioscience, USA) was designed to measure IDH1 enzyme activity by measuring NADPH consumption. For activity measurement, the enzyme (final concentration, 2.5 ng per reaction), α-ketoglutarate (IDH1 substrate; final concentration, 4 mM), NADPH (final concentration, 500 μM), and compounds were incubated for 1 h at room temperature. The compounds were added at different concentrations in the reaction buffer, starting from a final concentration of 30 μM. Buffer with the same amount of DMSO (1%) was used as a negative control. After the incubation time, NADPH detection reagent was added for 5 min at room temperature. The fluorescence signals (excitation/emission, 544 nm/600 nm) were read using a PerkinElmer EnSpire multimode plate reader (PerkinElmer, Waltham, MA, USA). The experiments were performed in triplicate. The IC50 values were calculated using GraphPad Prism 8.0 software by nonlinear regression of dose–response inhibition.

human recombinant CB1R = human recombinant CB1R (Homo sapiens, UniProt P21554); test: Competition binding assay, displacement of [3H]-CP-55,940; settings: displacement of [3H]-CP-55,940, HEK-293 membranes; read-out: EC50 or IC50, cannabinoid receptor 1
Method: Binding assays at equilibrium were conducted as described in Di Micco et al., 2024. […]. All compounds were evaluated following the manufacturer’s protocol (PerkinElmer distributed by Revvity, Italy). […] The K i values were calculated using the Cheng-Prusoff equation, based on the IC50 values obtained through GraphPad PRISM software (version 10.2.2). The results are expressed as K i (μM), represented as mean ± SEM, and reflect the average of three independent experiments performed in duplicate.

BRD4(BD1) = molecular target: T2, BRD4(BD1) (Homo sapiens, UniProt O60885); test: BRD4 (BD1) Inhibitor Screening Assay Kit (AlphaScreen); format: binding; settings: read-out: EC50 or IC50, bromodomain-containing protein 4
T2 construct: purchased BPS Bioscience (printed as 'BSP') 32514
Method: Compounds were first tested in triplicate at a concentration of 10 μM, using (+)-JQ1 as reference compound.
After that, 10 μL of acceptor and donor beads (250-fold diluted) were added, protecting them from light. The results were measured 60 min later using the Enspire microplate analyzer (PerkinElmer, California, USA). Each compound was tested in triplicate, and GraphPad Prism (version 8.0) was used to analyze the data, employing the equation log­(inhibitor) vs normalized response-variable slope

[2] = molecular target: T3, Poly [ADP-ribose] polymerase 1 (Homo sapiens, UniProt P09874); test: PARP1 Colorimetric Assay Kit (BPS Bioscience); format: biochemical; settings: top concentration 30 μM; read-out: EC50 or IC50, Poly [ADP-ribose] polymerase 1
T3 construct: purchased BPS Bioscience
Method: The assay was performed in a volume of 50 μL in 96-well transparent plates. The PARP1 assay kit (BPS Bioscience, USA) was performed by first coating the 96-well plate with histone proteins, then left at 4 °C overnight. Next, Poly [ADP-ribose] polymerase 1 (PARP1) enzyme (final concentration, 0.33 ng per reaction), a mixture of biotinylated NAD^+ (PARP substrate) and compounds were incubated for 1 h at room temperature. The compounds were added at different concentrations in the reaction buffer, starting from a final concentration of 30 μM. Buffer with the same amount of DMSO (1%) was used as a negative control. After incubation, the plate was treated with streptavidin-HRP followed by the addition of the colorimetric HRP substrate generating a colored solution. The generated signal was read at an absorbance of 450 nm using a microplate reader with UV/vis spectrophotometer (Multiskan Go, Thermo Fisher Scientific, Waltham, MA, USA). Experiments were performed in triplicate. IC50 values were calculated with GraphPad Prism 8.0 software by nonlinear dose–response inhibition regression.

T3 sequence (P09874 whole entry): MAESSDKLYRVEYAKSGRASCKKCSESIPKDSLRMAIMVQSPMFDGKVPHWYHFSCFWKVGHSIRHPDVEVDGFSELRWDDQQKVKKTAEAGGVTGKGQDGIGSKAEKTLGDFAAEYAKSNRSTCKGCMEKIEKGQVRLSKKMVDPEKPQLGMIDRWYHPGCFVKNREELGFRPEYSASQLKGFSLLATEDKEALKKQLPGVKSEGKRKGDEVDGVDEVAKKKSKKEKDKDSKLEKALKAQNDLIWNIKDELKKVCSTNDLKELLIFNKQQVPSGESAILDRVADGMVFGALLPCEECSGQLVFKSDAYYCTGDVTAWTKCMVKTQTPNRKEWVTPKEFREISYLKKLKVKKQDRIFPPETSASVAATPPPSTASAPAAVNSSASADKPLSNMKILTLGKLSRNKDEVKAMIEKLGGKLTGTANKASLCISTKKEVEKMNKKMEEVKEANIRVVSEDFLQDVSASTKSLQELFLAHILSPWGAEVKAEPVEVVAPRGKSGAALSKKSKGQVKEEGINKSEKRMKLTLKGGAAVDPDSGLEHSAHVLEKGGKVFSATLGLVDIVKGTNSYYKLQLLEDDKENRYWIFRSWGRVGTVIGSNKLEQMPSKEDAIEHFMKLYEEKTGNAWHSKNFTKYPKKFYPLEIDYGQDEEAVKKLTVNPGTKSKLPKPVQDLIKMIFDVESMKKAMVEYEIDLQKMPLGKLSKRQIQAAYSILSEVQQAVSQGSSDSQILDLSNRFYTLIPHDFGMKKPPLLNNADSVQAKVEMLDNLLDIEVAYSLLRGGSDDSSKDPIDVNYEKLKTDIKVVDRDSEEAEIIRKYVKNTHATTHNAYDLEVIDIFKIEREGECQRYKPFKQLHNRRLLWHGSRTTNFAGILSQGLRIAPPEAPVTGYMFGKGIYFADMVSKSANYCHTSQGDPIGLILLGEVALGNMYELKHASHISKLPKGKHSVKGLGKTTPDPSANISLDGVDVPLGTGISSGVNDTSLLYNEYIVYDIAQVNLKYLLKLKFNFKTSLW
T1 sequence (O75874 whole entry R132H): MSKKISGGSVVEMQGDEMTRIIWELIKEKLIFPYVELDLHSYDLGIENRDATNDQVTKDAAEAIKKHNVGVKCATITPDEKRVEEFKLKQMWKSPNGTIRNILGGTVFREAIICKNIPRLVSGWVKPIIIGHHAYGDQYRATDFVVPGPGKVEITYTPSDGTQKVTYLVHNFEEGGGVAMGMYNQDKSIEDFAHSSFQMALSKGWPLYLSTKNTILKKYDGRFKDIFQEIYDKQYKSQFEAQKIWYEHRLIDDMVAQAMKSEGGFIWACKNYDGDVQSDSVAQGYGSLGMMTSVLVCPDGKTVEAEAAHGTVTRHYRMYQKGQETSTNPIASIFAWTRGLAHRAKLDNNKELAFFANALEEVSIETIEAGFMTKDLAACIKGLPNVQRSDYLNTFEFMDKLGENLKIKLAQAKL
Sequence of human recombinant CB1R (P21554 whole entry): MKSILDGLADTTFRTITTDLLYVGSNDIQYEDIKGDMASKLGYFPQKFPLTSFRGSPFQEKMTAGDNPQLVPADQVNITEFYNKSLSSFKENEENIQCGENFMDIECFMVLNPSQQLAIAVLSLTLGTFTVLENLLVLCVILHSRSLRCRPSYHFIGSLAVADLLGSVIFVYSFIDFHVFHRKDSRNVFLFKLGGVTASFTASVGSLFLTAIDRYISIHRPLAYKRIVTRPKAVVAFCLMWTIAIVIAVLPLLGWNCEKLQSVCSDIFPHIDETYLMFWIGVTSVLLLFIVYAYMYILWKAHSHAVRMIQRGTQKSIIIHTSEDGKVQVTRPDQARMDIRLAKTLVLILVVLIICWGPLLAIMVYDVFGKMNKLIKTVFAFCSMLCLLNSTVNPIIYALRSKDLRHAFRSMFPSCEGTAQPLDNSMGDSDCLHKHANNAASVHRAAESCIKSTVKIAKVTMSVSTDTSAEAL

SMILES	EC50 (HEPG2)	EC50 (A375)	EC50 (A549)	EC50 (MCF7)	EC50 (SHSY5Y)	IC50 ([1]; read-out: EC50 or IC50, isocitrate dehydrogenase)	IC50 (human recombinant CB1R)	IC50 (BRD4(BD1))	IC50 [2]	EC50 or IC50, isocitrate dehydrogenase [1]
CC(C)C[C@H]1C(=O)N(Cc2ccc(C(F)(F)F)cc2)c2ccccc2C(=O)N1Cc1ccc(C(F)(F)F)cc1 [Compound 31, (S)-3-Isobutyl-1,4-bis(4-(trifluoromethyl)benzyl)-3,4-dihydro-1H-benzo[e][1,4]diazepine-2,5-dione]	12 ± 3.51 µM	650 ± 400 nM	> 40 µM	17.3 ± 2.38 µM	> 40 µM	14.9 ± 2.12 µM	> 30 µM	1190 ± 290 nM	> 30 µM	–
CC(C)C[C@@H](C(=O)OCc1ccccc1)N1Cc2ccccc2NC1=O [Compound 63, Benzyl (S)-4-Methyl-2-(2-oxo-1,4-dihydroquinazolin-3(2H)-yl)pentanoate]	2.17 ± 0.96 µM	2290 ± 1120 nM	36.4 ± 3.15 µM	27.9 ± 2.44 µM	23.2 ± 4.17 µM	–	> 30 µM	110 ± 90 nM	> 30 µM	not soluble
